This is an account of results in patent US12117455B2, “Early detection marker for degenerative osteoarthritis with TRIM24-RIP3 axis” (AJOU UNIVERSITY INDUSTRY-ACADEMIC COOPERATION FOUNDATION, priority 2020, dated 2024).

Data set [1] has as its system RIP3-overexpressing chondrocytes. The experiment in a line: MMP3, MMP13 and COX2 expression (RT-PCR, qPCR, Western blotting) in Ad-Rip3-infected chondrocytes. Format: cell-based, mouse. The procedure:
(§1) Mouse articular chondrocytes were isolated from the cartilage of ICR mice on the 5th day after birth, enzymatically digested with protease and collagenase, and then maintained in DMEM (Capricorn Scientific GmbH: Hessen, Germany) supplemented with 10% FBS, 100 units/mL penicillin and 100 μg/mL streptomycin. On the 3rd day, cells (4.25×10^5 cells/well) were infected with adenovirus or treated with recombinant protein. Mlkl+/+ and Mlkl−/− MEFs were maintained in DMEM supplemented with 10% FBS and penicillin-streptomycin.
(§2) Cells were lysed in an M2 buffer, and mouse tissues were lysed in a lysis buffer containing 50 mM Tris-HCl (pH 7.5), 150 mM NaCl, 50 mM NaF, 1% Tween 20, 0.2% NP-40, and a protease inhibitor. Equal amounts of cell extracts were separated using SDS-PAGE (6% stacking gel and 10% running gel) and analyzed through immunoblotting.
Total RNA was extracted from articular chondrocytes using a TRIzol reagent (Molecular Research Center (Cincinnati, OH, USA)) and then reverse-transcribed into complementary DNA (cDNA) using ImProm-II™ Transcriptase (Promega (Madison, WI, USA)), followed by amplification through PCR or qPCR using the primers shown in Table 2 below. qPCR was performed using SYBR premix Ex Taq (TaKaRa Bio., Kusatsu, Shiga, Japan), and the results thereof were normalized to Gapdh and represented as fold changes compared to controls.

For a further data set, the system named is chondrocytes. Nature of the data set: Cell viability / cytotoxicity by LDH assay in chondrocytes. Particulars: for cytotoxic effects on chondrocytes (LDH release assay, Western blotting, phase-contrast microscopy): chondrocytes infected with Ad-C or Ad-Rip3. The data set is classed as cell-based, mouse. As to the method: Mouse articular chondrocytes were isolated from the cartilage of ICR mice on the 5th day after birth, enzymatically digested with protease and collagenase, and then maintained in DMEM (Capricorn Scientific GmbH: Hessen, Germany) supplemented with 10% FBS, 100 units/mL penicillin and 100 μg/mL streptomycin. On the 3rd day, cells (4.25×10^5 cells/well) were infected with adenovirus or treated with recombinant protein. Mlkl+/+ and Mlkl−/− MEFs were maintained in DMEM supplemented with 10% FBS and penicillin-streptomycin. Cell viability was assessed using a lactate dehydrogenase (LDH) colorimetric assay kit (Bio Vision (Milpitas, CA, USA)). Chondrocytes were dispensed into a 96-well dish (1.5×10^4 cells/well), cultured for 24 hours (5% CO2, 37° C.), and treated with various concentrations of AZ-628, selumetinib, and neratinib for 24 hours. The supernatant was analyzed using a microplate reader at 495 nm. Untreated (100% viable) and Triton X-100 treated (0% viable) samples were used for normalization. The viability was calculated as follows.

A further data set deals with T1, RIP3 (Mus musculus, UniProt Q9QZL0).
T1 construct: host or cells: primary mouse articular chondrocytes (ICR mice), adenoviral infection
The experiment in a line: RIP3 kinase activity / RIP3 phosphorylation by Western blotting in Ad-Rip3-infected chondrocytes. Format: cell-based. Particulars: RIP3-overexpressing chondrocytes. The procedure: as §1, §2

In another data set the test system is MLKL. Nature of the data set: MLKL protein levels in chondrocytes treated with proteasome or lysosome inhibitors (Western blotting). Format: cell-based, mouse. Particulars: treatment for 6 hours. The procedure:
as §2

Entries after “also recorded” stand apart in the source; their conditions may differ. Where a SMILES comes first, the peptide text is derived from it. The star is where a group is joined. Cbz = O=C(OCc1ccccc1)*

T1 sequence (Q9QZL0 whole entry): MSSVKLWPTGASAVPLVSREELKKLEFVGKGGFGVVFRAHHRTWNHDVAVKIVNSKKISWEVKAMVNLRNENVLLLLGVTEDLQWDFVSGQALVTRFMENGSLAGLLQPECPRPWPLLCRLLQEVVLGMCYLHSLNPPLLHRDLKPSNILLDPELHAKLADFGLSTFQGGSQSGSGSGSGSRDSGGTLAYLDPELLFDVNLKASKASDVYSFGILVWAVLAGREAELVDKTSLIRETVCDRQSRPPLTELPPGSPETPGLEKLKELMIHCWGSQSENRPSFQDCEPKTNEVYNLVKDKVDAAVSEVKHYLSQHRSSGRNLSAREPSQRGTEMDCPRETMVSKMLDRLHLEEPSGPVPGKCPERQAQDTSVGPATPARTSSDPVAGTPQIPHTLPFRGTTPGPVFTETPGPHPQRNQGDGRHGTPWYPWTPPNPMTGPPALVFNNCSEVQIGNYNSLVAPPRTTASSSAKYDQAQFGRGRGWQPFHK

For the compound `Cc1ccc(NC(=O)c2cccc(C(C)(C)C#N)c2)cc1Nc1ccc2ncn(C)c(=O)c2c1` [AZ-628], in data set [1] (compared with selumetinib or neratinib), the “inhibition of osteoarthritis manifestations in RIP3-overexpressing chondrocytes” value is recorded as “more effectively inhibited”. Moreover, the “Mmp3 and Cox2 expression (osteoarthritis-related gene expression)” value in data set [1] (qPCR, RIP3-overexpressing chondrocytes treated with RIP3 kinase inhibitors) is reported as “decreased; also recorded: attenuated”. Also, the “cytotoxic effects in chondrocytes (LDH assay)” value with chondrocytes (at 2 μM, 24 hours) is on record as “no toxicity”. The “cytotoxic effects on chondrocytes (LDH release assay, Western blotting, phase-contrast microscopy)” value (from here on “cytotoxic effects on chondrocytes”) in the data set with chondrocytes is “without chondrocyte toxicity”. Besides, the “RIP3 (kinase) activity” value on RIP3 is given as “potent RIP3 kinase inhibitor; also recorded: attenuates RIP3 kinase activity”. `CCN(CC)CCCC(C)Nc1ccnc2cc(Cl)ccc12` (stereo not drawn) [CQ, Chloroquine diphosphate]: in the data set on MLKL, the MLKL protein levels entry was “did not change”. As for `CC(C)S(=O)(=O)c1ccc2nccc(Nc3ccc4scnc4c3)c2c1` [GSK 872], in the data set with chondrocytes, the “cytotoxic effects on chondrocytes” value is on record as “greater cytotoxic effects on chondrocytes than AZ-628”.

On to `CC(C)C[C@@H](C=O)NC(=O)[C@H](CC(C)C)NC(=O)[C@H](CC(C)C)NC(=O)OCc1ccccc1` [MG132] (Cbz-Leu-Leu-Leu-aldehyde), for which the MLKL protein levels entry with MLKL was “did not change”. As for HS-1371, in the data set on chondrocytes, the “cytotoxic effects on chondrocytes” value is on record as “greater cytotoxic effects on chondrocytes than AZ-628”.
